Data reported in ChEMBL document CHEMBL1201862, “PubChem BioAssay data set” (2004).
Several values for one entry are separate records, joined by “and”; a condition that tells them apart may be missing. Equal values may be shown once. Where a name gives a salt, the structure may show the parent alone.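 These data come from cells grown in 96-well plates and exposed to compound for 48 hours at five concentrations. The concentration for 50% growth inhibition is given as GI50.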 Activity calls are given as the source filed them. Rule as the data show it: active = GI50 up to about 1.1 µM and inactive = higher.

Legend:
Test in all cases: NCI-60 cell line screen, 48 h
[1] = test system: HCT-15
[2] = test system: RPMI-8226
[3] = test system: K562
[4] = test system: SK-MEL-5
[5] = test system: PC-3
[6] = test system: UACC-62
[7] = test system: OVCAR-3
[8] = test system: NCI-H460
[9] = test system: UACC-257
[10] = test system: SR
[11] = test system: TK-10
[12] = test system: NCI/ADR-RES
[13] = test system: 786-0
[14] = test system: LOX IMVI
[15] = test system: NCI-H522
[16] = test system: M14
[17] = test system: SK-MEL-28
[18] = test system: COLO 205
[19] = test system: SK-OV-3
[20] = test system: HCC 2998

For `O=[N+]([O-])c1cc(-c2ccc([As](=O)(O)O)cc2)ccc1[As](=O)(O)O`, the GI50 [1] was > 100 µM, the GI50 [2] was > 100 µM (inactive) and the GI50 [3] was > 100 µM (inactive). The GI50 [4] was > 100 µM (inactive), the GI50 [5] was > 100 µM (inactive) and the GI50 [6] was > 100 µM (inactive). The GI50 [7] was > 100 µM (inactive), the GI50 [8] was > 100 µM (inactive) and the GI50 [9] was > 100 µM (inactive). For the same molecule, the GI50 [10] was > 100 µM (inactive), the GI50 [11] was > 100 µM (inactive) and the GI50 [12] was > 100 µM (inactive). The GI50 [13] was > 100 µM (inactive), the GI50 [14] was > 100 µM (inactive) and the GI50 [15] was > 100 µM (inactive). For the same molecule, the GI50 [16] was > 100 µM (inactive) and the GI50 [17] was > 100 µM (inactive).
With `NCC1CCN(c2nc3ccccc3c3c2CCCC3)CC1` the GI50 [1] was 4.16 µM, the GI50 [2] was 2.31 µM (inactive) and the GI50 [3] was 2.54 µM (inactive). For the same molecule, the GI50 [4] was 2.96 µM (inactive), the GI50 [5] was 8.93 µM (inactive) and the GI50 [6] was 2.29 µM (inactive). The GI50 [18] was 1.61 µM (inactive), the GI50 [7] was 9.75 µM (inactive) and the GI50 [8] was 5.06 µM (inactive). The GI50 [19] was 14.7 µM (inactive), the GI50 [9] was 2.68 µM (inactive) and the GI50 [20] was 1.9 µM (inactive). The GI50 [11] was 12.9 µM (inactive), the GI50 [12] was 12.9 µM (inactive) and the GI50 [13] was 4.23 µM (inactive). The GI50 [14] was 4.81 µM (inactive), the GI50 [15] was 6.22 µM (inactive) and the GI50 [16] was 1.92 µM (inactive). For the same molecule, the GI50 [17] was 5.15 µM (inactive).
In the case of `O=C(O)CC(NC(=O)Nc1ccc([N+](=O)[O-])cc1)C(=O)Nc1ccc([N+](=O)[O-])cc1` (stereo not drawn), the GI50 [1] is reported as > 100 µM, the GI50 [2] is reported as > 100 µM (inactive) and the GI50 [3] is reported as > 100 µM (inactive). For the same molecule, the GI50 [4] was 50.8 µM (inactive), the GI50 [5] was > 100 µM (inactive) and the GI50 [6] was 0.69 µM (active). The GI50 [18] was > 100 µM (inactive), the GI50 [7] was > 100 µM (inactive) and the GI50 [8] was > 100 µM (inactive). The GI50 [19] was > 100 µM (inactive), the GI50 [9] was > 100 µM (inactive) and the GI50 [20] was > 100 µM (inactive). For the same molecule, the GI50 [11] was > 100 µM (inactive), the GI50 [12] was > 100 µM (inactive) and the GI50 [13] was > 100 µM (inactive). For the same molecule, the GI50 [14] was > 100 µM (inactive), the GI50 [15] was > 100 µM (inactive) and the GI50 [16] was > 100 µM (inactive). The GI50 [17] was > 100 µM (inactive).
With `CCOC(=O)c1cn(CC)c2ccc3ccsc3c2c1=O` the GI50 [1] was > 100 µM, the GI50 [2] was > 100 µM (inactive) and the GI50 [3] was > 100 µM (inactive). For the same molecule, the GI50 [4] was > 100 µM (inactive), the GI50 [5] was > 100 µM (inactive) and the GI50 [6] was > 100 µM (inactive). The GI50 [18] was > 100 µM (inactive), the GI50 [7] was > 100 µM (inactive) and the GI50 [8] was > 100 µM (inactive). For the same molecule, the GI50 [19] was > 100 µM (inactive), the GI50 [9] was > 100 µM (inactive) and the GI50 [20] was > 100 µM (inactive). The GI50 [11] was > 100 µM (inactive), the GI50 [12] was > 100 µM (inactive) and the GI50 [13] was > 100 µM (inactive). For the same molecule, the GI50 [14] was > 100 µM (inactive), the GI50 [15] was > 100 µM (inactive) and the GI50 [16] was > 100 µM (inactive). For the same molecule, the GI50 [17] was > 100 µM (inactive).
With `O=C(c1ccccc1)c1ccc2[nH]c(-c3c(Cl)c(Cl)c(Cl)c(Cl)c3C(=O)N/N=C\C=C\c3ccccc3)nc2c1` the GI50 [1] was 32.5 µM, the GI50 [2] was 17.5 µM (inactive) and the GI50 [3] was 19.4 µM (inactive). The GI50 [4] was 26.9 µM (inactive), the GI50 [5] was 42.3 µM (inactive) and the GI50 [18] was 30.5 µM (inactive). The GI50 [7] was 25.1 µM (inactive), the GI50 [19] was > 100 µM (inactive) and the GI50 [9] was 83.9 µM (inactive). The GI50 [10] was 23.3 µM (inactive), the GI50 [11] was 86.9 µM (inactive) and the GI50 [12] was > 100 µM (inactive). The GI50 [13] was 35.8 µM (inactive), the GI50 [14] was 48.9 µM (inactive) and the GI50 [15] was 26.9 µM (inactive). The GI50 [16] was 53.5 µM (inactive) and the GI50 [17] was 51.3 µM (inactive).
For `COc1cc(C[S+]([O-])c2ccc(O)cc2)cc(OC)c1OC` (stereo not drawn), the GI50 [1] was > 100 µM, the GI50 [2] was > 100 µM (inactive) and the GI50 [3] was > 100 µM (inactive). The GI50 [4] was > 100 µM (inactive), the GI50 [5] was > 100 µM (inactive) and the GI50 [6] was > 100 µM (inactive). For the same molecule, the GI50 [18] was > 100 µM (inactive), the GI50 [7] was > 100 µM (inactive) and the GI50 [8] was > 100 µM (inactive). For the same molecule, the GI50 [19] was > 100 µM (inactive), the GI50 [9] was > 100 µM (inactive) and the GI50 [10] was > 100 µM (inactive). For the same molecule, the GI50 [11] was > 100 µM (inactive), the GI50 [12] was > 100 µM (inactive) and the GI50 [13] was > 100 µM (inactive). For the same molecule, the GI50 [14] was > 100 µM (inactive), the GI50 [15] was > 100 µM (inactive) and the GI50 [16] was > 100 µM (inactive). For the same molecule, the GI50 [17] was > 100 µM (inactive).
In the case of `CCOC(=O)NC(NC(C)CC)(C(F)(F)F)C(F)(F)F` (stereo not drawn), the GI50 [1] is reported as > 100 µM, the GI50 [2] is reported as > 100 µM (inactive) and the GI50 [3] is reported as > 100 µM (inactive). The GI50 [4] was > 100 µM (inactive), the GI50 [5] was > 100 µM (inactive) and the GI50 [6] was > 100 µM (inactive). For the same molecule, the GI50 [18] was > 100 µM (inactive), the GI50 [7] was > 100 µM (inactive) and the GI50 [8] was > 100 µM (inactive). For the same molecule, the GI50 [9] was > 100 µM (inactive), the GI50 [10] was > 100 µM (inactive) and the GI50 [11] was > 100 µM (inactive). The GI50 [12] was > 100 µM (inactive), the GI50 [13] was > 100 µM (inactive) and the GI50 [14] was > 100 µM (inactive). The GI50 [15] was > 100 µM (inactive), the GI50 [16] was > 100 µM (inactive) and the GI50 [17] was > 100 µM (inactive).
With `O=C(Nc1cc(C(=O)Nc2cccc(S(=O)(=O)O)c2)cc(C(=O)Nc2cccc(S(=O)(=O)O)c2)c1)c1cccc(C(=O)Nc2cc(C(=O)Nc3cccc(S(=O)(=O)O)c3)cc(C(=O)Nc3cccc(S(=O)(=O)O)c3)c2)c1` the GI50 [1] was 50.7 µM, the GI50 [2] was > 100 µM (inactive) and the GI50 [3] was 25.6 µM (inactive). The GI50 [4] was > 100 µM (inactive), the GI50 [5] was > 100 µM (inactive) and the GI50 [6] was > 100 µM (inactive). For the same molecule, the GI50 [18] was > 100 µM (inactive), the GI50 [7] was > 100 µM (inactive) and the GI50 [8] was > 100 µM (inactive). For the same molecule, the GI50 [19] was > 100 µM (inactive), the GI50 [9] was > 100 µM (inactive) and the GI50 [20] was > 100 µM (inactive). The GI50 [11] was > 100 µM (inactive), the GI50 [12] was > 100 µM (inactive) and the GI50 [13] was > 100 µM (inactive). The GI50 [14] was > 100 µM (inactive), the GI50 [15] was > 100 µM (inactive) and the GI50 [16] was 97.1 µM (inactive). For the same molecule, the GI50 [17] was > 100 µM (inactive).
For `Cc1ncc([N+](=O)[O-])n1CCNS(=O)(=O)CCCn1ccnc1[N+](=O)[O-]`, the GI50 [1] was > 100 µM, the GI50 [2] was > 100 µM (inactive) and the GI50 [3] was > 100 µM (inactive). For the same molecule, the GI50 [4] was > 100 µM (inactive), the GI50 [5] was > 100 µM (inactive) and the GI50 [6] was > 100 µM (inactive). The GI50 [18] was > 100 µM (inactive), the GI50 [7] was > 100 µM (inactive) and the GI50 [8] was > 100 µM (inactive). The GI50 [19] was > 100 µM (inactive), the GI50 [9] was > 100 µM (inactive) and the GI50 [10] was > 100 µM (inactive). For the same molecule, the GI50 [11] was > 100 µM (inactive), the GI50 [12] was > 100 µM (inactive) and the GI50 [13] was > 100 µM (inactive). The GI50 [14] was > 100 µM (inactive), the GI50 [15] was > 100 µM (inactive) and the GI50 [16] was > 100 µM (inactive). For the same molecule, the GI50 [17] was > 100 µM (inactive).
With `CN(C)CCCN1c2ccccc2Sc2ccc(C(F)(F)F)cc21` [TRIFLUPROMAZINE HYDROCHLORIDE] the GI50 [1] was 17.1 µM and 16.1 µM, the GI50 [2] was 21.2 µM (inactive) and 14.9 µM (inactive) and the GI50 [3] was > 10 µM (inactive) and 13.8 µM (inactive). For the same molecule, the GI50 [4] was 17.4 µM (inactive), the GI50 [5] was 15.2 µM (inactive) and the GI50 [6] was 16.6 µM (inactive) and 16.8 µM (inactive). For the same molecule, the GI50 [18] was 16.3 µM (inactive) and 16.7 µM (inactive), the GI50 [8] was 16.4 µM (inactive) and 15 µM (inactive) and the GI50 [19] was 18.6 µM (inactive) and 16.6 µM (inactive). The GI50 [9] was 13.5 µM (inactive) and 15.3 µM (inactive), the GI50 [10] was 18.1 µM (inactive) and 17.6 µM (inactive) and the GI50 [11] was 17.4 µM (inactive) and 15.2 µM (inactive). For the same molecule, the GI50 [12] was 17.2 µM (inactive), the GI50 [13] was 14.7 µM (inactive) and 14.1 µM (inactive) and the GI50 [14] was 15.5 µM (inactive) and 13.9 µM (inactive). The GI50 [15] was 17.9 µM (inactive) and 18.1 µM (inactive) and the GI50 [17] was 16.3 µM (inactive) and 14.8 µM (inactive).
